{
  "source": "patent US20220339166A1",
  "about": "“POST COVID19 VACCINE REMEDIES” (priority 2021, published 2022)",
  "origin": "cited, not measured here",
  "key": {"[1]": {"system": "Trypanosoma cruzi"}, "[2]": {"molecular_target": "ODC (Homo sapiens, UniProt P11926)", "sequence (P11926 whole entry)": "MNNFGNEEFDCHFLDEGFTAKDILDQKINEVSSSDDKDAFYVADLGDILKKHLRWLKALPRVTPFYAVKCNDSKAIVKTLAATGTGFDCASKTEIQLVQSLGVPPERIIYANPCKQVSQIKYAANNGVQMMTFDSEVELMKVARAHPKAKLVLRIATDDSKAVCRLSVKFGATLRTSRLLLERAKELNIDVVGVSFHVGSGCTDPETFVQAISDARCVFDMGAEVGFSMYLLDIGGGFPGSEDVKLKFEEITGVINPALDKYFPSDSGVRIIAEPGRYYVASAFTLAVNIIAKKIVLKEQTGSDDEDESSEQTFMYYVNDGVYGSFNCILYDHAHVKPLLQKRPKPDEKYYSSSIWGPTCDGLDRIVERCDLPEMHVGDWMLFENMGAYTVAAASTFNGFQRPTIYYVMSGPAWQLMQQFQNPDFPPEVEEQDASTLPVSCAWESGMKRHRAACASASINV"}, "[3]": {"molecular_target": "ACE2 (Homo sapiens, UniProt Q9BYF1)", "sequence (Q9BYF1 18-805)": "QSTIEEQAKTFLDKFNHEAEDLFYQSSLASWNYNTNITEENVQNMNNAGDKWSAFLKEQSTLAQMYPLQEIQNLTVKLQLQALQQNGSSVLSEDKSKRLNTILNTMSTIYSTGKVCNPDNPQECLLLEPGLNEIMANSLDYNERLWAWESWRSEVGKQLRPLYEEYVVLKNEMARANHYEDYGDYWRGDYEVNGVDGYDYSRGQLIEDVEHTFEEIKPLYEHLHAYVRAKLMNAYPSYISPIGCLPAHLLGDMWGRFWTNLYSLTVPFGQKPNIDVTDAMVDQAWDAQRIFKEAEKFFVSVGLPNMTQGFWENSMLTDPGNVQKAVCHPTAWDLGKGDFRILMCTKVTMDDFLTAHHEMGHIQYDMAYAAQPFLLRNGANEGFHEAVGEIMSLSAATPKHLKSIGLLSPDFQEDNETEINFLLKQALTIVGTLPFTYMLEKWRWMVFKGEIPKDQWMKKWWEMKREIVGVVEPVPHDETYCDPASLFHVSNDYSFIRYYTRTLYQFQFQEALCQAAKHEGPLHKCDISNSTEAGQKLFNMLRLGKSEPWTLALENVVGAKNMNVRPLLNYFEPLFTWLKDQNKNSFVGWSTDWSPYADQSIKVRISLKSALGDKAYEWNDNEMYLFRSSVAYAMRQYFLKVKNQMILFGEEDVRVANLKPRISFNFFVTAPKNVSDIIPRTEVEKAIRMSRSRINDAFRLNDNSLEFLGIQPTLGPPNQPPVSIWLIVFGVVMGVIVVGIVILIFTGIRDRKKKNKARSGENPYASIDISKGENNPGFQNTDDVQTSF"}, "[4]": {"system": "mouse bone marrow", "details": "in vivo"}},
  "note": "Read-outs that look alike come from different tables or passages of the source.",
  "data": [
    {"smiles": "O=C(Cn1ccnc1[N+](=O)[O-])NCc1ccccc1", "note": "[benznidazole]", "values": [
      {"measurement": "effective in curing", "setting": "[1]; given soon after infection, at the onset of the acute phase", "value": "~100", "unit": "%"}
    ]},
    {"smiles": "NCCCC(N)(C(=O)O)C(F)F", "note": "(stereo not drawn) [DFMO]", "values": [
      {"measurement": "stalls DNA synthesis", "setting": "[2]", "value": "70-80%"}
    ]},
    {"smiles": "CC1CS(=O)(=O)CCN1/N=C/c1ccc([N+](=O)[O-])o1", "note": "(stereo not drawn) [nifurtimox]", "values": [
      {"measurement": "effective in curing", "setting": "[1]; in vivo", "value": "~100", "unit": "%"}
    ]},
    {"smiles": "O=C([O-])O.[Na+]", "note": "[sodium bicarbonate]", "values": [
      {"measurement": "reduction of ACE2 affinity and interference with fusion domain for S1 spike protein", "setting": "[3]", "value": 17, "unit": "%"}
    ]},
    {"smiles": "NCCS", "note": "[Cysteamine]", "values": [
      {"measurement": "DNA synthesis", "setting": "[4]", "value": "inhibits DNA synthesis"}
    ]},
    {"smiles": "NCCCC[C@H](N)C(=O)O", "note": "[lysine]", "values": [
      {"measurement": "reduction of ACE2 affinity and interference with fusion domain for S1 spike protein", "setting": "[3]", "value": 10, "unit": "%"}
    ]}
  ]
}
